Experiments:
Assay type in all cases: biochemical
JAK3 = molecular target: T1, JAK3 (Homo sapiens, UniProt P52333); experiment: Z'-LYTE FRET kinase assay, 10-point titration
T1 construct: commercial Z'-LYTE kinase assay (Life Technologies)
T1 sequence (P52333 1-1124): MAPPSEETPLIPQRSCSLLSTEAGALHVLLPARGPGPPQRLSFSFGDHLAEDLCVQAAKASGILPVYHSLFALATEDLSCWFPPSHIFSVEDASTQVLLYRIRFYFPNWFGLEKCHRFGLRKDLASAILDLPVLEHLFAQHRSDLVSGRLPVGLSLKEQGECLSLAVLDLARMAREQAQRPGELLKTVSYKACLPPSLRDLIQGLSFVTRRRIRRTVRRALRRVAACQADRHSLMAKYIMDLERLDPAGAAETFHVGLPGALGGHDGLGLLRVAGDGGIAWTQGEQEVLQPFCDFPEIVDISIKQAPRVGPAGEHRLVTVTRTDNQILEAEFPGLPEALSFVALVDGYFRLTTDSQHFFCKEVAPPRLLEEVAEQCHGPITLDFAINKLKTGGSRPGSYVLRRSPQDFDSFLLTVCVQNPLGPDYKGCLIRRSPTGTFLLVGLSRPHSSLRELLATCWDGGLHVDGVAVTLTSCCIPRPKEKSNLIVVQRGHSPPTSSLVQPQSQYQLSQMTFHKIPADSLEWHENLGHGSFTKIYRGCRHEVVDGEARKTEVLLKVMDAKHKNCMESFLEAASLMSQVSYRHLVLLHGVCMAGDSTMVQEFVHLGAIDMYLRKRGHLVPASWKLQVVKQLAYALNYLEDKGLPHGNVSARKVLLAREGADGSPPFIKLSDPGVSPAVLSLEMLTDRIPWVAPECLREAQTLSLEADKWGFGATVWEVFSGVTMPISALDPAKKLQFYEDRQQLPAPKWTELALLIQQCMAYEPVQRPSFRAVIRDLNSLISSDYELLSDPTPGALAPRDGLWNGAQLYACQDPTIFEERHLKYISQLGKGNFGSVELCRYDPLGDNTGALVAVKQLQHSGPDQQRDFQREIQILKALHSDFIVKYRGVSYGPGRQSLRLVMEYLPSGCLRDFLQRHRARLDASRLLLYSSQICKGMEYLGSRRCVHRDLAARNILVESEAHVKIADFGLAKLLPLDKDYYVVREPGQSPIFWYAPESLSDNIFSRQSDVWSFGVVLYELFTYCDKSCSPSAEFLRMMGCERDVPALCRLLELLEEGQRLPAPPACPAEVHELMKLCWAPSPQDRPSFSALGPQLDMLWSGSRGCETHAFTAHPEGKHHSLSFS

JAK1 = JAK1 (Homo sapiens, UniProt P23458); experiment: kinase inhibition assay
JAK2 = JAK2 (Homo sapiens, UniProt O60674); experiment: kinase inhibition assay
JAK2, sequence (O60674 whole entry): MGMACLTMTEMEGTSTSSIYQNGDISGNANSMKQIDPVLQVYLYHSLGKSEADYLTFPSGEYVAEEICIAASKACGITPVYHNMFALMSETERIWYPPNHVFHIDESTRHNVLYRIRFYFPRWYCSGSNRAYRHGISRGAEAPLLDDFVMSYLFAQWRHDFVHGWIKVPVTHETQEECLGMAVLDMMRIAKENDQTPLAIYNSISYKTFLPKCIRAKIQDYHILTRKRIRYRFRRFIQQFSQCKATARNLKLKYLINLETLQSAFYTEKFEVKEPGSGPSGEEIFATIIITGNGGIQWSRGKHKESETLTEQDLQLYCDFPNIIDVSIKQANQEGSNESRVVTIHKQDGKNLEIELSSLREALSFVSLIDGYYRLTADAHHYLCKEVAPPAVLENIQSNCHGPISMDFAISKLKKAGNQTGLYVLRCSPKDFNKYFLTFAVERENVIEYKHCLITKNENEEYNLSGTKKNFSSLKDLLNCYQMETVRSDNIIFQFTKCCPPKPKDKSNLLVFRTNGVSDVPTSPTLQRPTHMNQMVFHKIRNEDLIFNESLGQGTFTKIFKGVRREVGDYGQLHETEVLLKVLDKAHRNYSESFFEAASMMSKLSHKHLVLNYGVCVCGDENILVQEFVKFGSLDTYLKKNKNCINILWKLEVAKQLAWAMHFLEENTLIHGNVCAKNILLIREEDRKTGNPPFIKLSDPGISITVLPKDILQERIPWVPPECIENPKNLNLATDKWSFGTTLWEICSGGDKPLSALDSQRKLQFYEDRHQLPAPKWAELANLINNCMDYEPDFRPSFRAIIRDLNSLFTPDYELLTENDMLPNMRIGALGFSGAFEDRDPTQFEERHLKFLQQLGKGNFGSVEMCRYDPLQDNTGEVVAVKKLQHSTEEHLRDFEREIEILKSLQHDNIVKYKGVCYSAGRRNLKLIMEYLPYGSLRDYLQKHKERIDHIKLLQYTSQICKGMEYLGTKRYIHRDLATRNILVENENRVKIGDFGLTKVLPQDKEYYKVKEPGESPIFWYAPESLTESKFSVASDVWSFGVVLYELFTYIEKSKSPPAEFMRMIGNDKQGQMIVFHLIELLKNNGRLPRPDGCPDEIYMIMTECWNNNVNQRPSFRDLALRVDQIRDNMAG

JAK1, sequence (P23458 whole entry): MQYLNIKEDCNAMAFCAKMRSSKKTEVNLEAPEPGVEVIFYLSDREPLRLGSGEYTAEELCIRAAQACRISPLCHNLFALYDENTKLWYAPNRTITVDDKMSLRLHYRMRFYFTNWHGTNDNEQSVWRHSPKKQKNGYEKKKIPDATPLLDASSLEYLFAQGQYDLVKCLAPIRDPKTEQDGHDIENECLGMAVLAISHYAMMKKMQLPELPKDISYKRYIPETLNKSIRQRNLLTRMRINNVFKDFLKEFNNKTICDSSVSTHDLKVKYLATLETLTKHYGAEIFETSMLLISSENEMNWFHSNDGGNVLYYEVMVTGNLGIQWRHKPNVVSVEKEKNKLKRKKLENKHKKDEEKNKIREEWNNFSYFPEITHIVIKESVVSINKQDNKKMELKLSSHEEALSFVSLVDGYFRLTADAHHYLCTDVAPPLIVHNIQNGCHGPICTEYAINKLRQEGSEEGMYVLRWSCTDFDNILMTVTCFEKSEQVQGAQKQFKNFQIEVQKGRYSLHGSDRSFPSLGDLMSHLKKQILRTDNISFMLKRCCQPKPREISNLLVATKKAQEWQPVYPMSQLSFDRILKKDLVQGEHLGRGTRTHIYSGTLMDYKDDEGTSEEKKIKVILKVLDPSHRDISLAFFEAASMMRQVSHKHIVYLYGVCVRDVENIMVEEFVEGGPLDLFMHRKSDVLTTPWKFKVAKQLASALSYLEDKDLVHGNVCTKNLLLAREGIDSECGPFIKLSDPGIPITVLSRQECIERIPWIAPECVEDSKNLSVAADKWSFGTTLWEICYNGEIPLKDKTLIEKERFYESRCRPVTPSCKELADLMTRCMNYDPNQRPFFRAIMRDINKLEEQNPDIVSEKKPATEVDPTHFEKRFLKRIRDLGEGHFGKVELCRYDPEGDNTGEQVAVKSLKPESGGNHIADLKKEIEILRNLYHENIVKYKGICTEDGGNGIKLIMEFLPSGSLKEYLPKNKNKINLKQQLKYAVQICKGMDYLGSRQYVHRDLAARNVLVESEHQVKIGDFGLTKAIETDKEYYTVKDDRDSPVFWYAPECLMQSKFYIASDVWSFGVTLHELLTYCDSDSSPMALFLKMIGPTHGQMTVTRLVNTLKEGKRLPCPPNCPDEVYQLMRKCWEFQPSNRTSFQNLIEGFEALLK

| Compound | IC50 (JAK3) [nM] | inhibition at 10 µM (JAK1) [%] | inhibition at 10 µM (JAK2) [%] |
| --- | --- | --- | --- |
| C=CC(=O)N1C[C@H](COc2nc(Nc3cnn(C)c3)nc3[nH]cc(Cl)c23)[C@@H](OC)C1 [compound 1, PF-06459988] | 5 |  |  |
| C=CC(=O)Nc1cc(NC(=O)c2n[nH]c3ccccc23)ccc1F [compound 5] | 389 | 18 | 62 |
| C=CC(=O)Nc1cc(NC(=O)c2n[nH]c3c2CCC3)ccc1F [compound 9] | 1270 |  |  |

From paper PMC6593427, “DUckCov: a Dynamic Undocking‐Based Virtual Screening Protocol for Covalent Binders” (Chemmedchem, 2019)
